Measurements published in PMC5943930, “Identification of Inhibitors Targeting Ferredoxin-NADP^+ Reductase from the Xanthomonas citri subsp. citri Phytopathogenic Bacteria” (Molecules : A Journal of Synthetic Chemistry and Natural …, 2017).
Like-named read-outs stand apart in the source and are kept apart here.

Legend:
Xcc [1] = experiment: Xcc growth inhibition on SB-agar plates; type: cell-based, Xanthomonas citri subsp. citri; settings: 24 h at 28 °C
Description: (§1) To evaluate the sensitivity of Xcc to C5, C12, C17 and C19, 100 µL of a bacterial suspension (containing ~10^9 cells mL^−1) were mixed with 4 mL of SB medium (5 g L^−1 sucrose, 5 g L^−1 yeast extract, 5 g L^−1 peptone, and 1 g L^−1 glutamic acid, pH 7.0) and 0.7% (w v^−1) molten agar and poured onto SB-1.5% (w v^−1) agar plates supplemented with 25 µg mL^−1 ampicillin. After hardening, 2 µL of a 10, 100 and 1000 µM solution of each compound were added onto the agar surface. The zones of growth inhibition were photographed after incubation for 24 h at 28 °C. To assess the compound inhibition effect on Xcc growth in liquid medium, overnight cultures were subcultured into fresh SB medium at 2% inoculums and grown for 6 h in the presence of 1 mM C12. Samples were removed at 0, 2, 4 and 6 h, serially diluted and plated on SB-1.5% (w v^−1) agar. Colonies were counted after 48 h of incubation at 28 °C.

Xcc [2] = experiment: Xcc growth/viability in liquid SB medium (colony-forming capacity); type: cell-based, Xanthomonas citri subsp. citri; settings: 1 mM compound, 28 °C, 0–6 h, control 2% DMSO
Description: as §1

XccFPR [3] = target: T1, XccFPR (Xanthomonas citri pv. citri, UniProt A0AAI7ZED9); experiment: NADPH-dependent DCPIP diaphorase activity of XccFPR, dose-response of inhibitors; type: biochemical, Xanthomonas citri subsp. citri; settings: for inhibitory effect on XccFPR (in words): C12 derived compounds D1–D8
T1 sequence (A0AAI7ZED9 1-259): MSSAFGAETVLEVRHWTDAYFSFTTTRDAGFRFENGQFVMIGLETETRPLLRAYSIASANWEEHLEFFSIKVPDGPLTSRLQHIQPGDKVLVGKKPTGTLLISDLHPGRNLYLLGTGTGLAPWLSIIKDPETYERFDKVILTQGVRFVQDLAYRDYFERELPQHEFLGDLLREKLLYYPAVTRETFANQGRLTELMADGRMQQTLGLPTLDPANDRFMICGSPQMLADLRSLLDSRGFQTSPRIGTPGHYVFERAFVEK
Description: (§2) When assayed in regular cuvettes, the DCPIP diaphorase activity of XccFPR was determined at 25 °C using a Cary 100 (Agilent Technologies Inc., Santa Clara, CA, USA) spectrophotometer as previously established. […] Positive controls (without any hit compound) were included in every reaction set. […] The DMSO concentration was kept at 2% in all samples. All kinetic experiments were performed in triplicate. The effect of the inhibitors on Km and kcat was determined by fitting the datasets to the Michaelis-Menten model. Additionally, data were globally fit to either Lineweaver-Burk equations for uncompetitive or non-competitive inhibition, yielding Ki for each compound (Equations (1) and (2), respectively).

XccFPR [4] = target: T1, XccFPR; experiment: Inhibition constants and mechanisms, XccFPR diaphorase activity as a function of NADPH at increasing inhibitor concentrations; type: biochemical, Xanthomonas citri subsp. citri; settings: 25 °C, 50 mM Tris/HCl, 2% DMSO, pH 8.0; for Ki: global fit to Lineweaver–Burk inhibition model; for Inhibition Mechanism: versus NADPH
Description: as §2
(1) [e]/V0=(1+[I]/K^′i)/kcat+Km/kcat·1/[S]
(2) [e]/V0=(1+[I]/Ki)/kcat+(1+[I]/Ki)·Km/kcat·1/[S]

XccFPR [5] = target: T1, XccFPR; experiment: Thermal stability of XccFPR, midpoint temperature for flavin release (TmFAD); type: binding, Xanthomonas citri subsp. citri; settings: 4 µM XccFPR
Description: The increase in fluorescence of the FAD cofactor when dissociated from the protein upon thermal unfolding was used to evaluate XccFPR stability under different conditions and to assess related midpoint temperature for flavin release (TmFAD). Fluorescence thermal denaturation curves were monitored on 96-well plates using a Stratagene Mx3005P qPCR detection system (Agilent Technologies Inc., Santa Clara, CA, USA). A FAM filter set (λexc = 492 nm; λem = 516 nm), which overlaps the fluorescence spectrum of the isoalloxazine ring was used to evaluate XccFPR midpoint temperature for flavin release (TmFAD) when free or in the presence of selected compounds. Measurements were performed using 4 µM protein in 50 mM Tris/HCl, pH 8.0 in a 100 µL final volume. Each measurement was done in triplicate.

AnFNR = target: T2, AnFNR (Nostoc sp., UniProt P21890); experiment: NADPH-dependent DCPIP diaphorase activity of AnFNR, dose-response of inhibitors; type: biochemical, Anabaena PCC 7119; settings: 95 µM DCPIP, 50 μM NADPH; for IC50 / ICmax (concentration causing maximal inhibition): 25 °C, 2% DMSO, pH 8.0, 4 nM AnFNR; for IC50: 50 mM Tris/HCl, compound 0–800 μM; for % Inhibition at ICmax: 4 nM AnFNR
T2 construct: made in house; host or cells: Escherichia coli
Description: We finally assessed the selectivity of our XccFPR inhibitors by testing the diaphorase activity of the plastidic Anabaena PCC 7119 FNR (AnFNR) at increasing concentrations of D2, D5 and D8 (Table 3).
as §2

XccFPR [6] = target: T1, XccFPR; experiment: Steady-state kinetic parameters of XccFPR NADPH-dependent DCPIP diaphorase activity; type: biochemical, Xanthomonas citri subsp. citri
Description: When assayed in regular cuvettes, the DCPIP diaphorase activity of XccFPR was determined at 25 °C using a Cary 100 (Agilent Technologies Inc., Santa Clara, CA, USA) spectrophotometer as previously established. […] Positive controls (without any hit compound) were included in every reaction set. […] All kinetic experiments were performed in triplicate. The effect of the inhibitors on Km and kcat was determined by fitting the datasets to the Michaelis-Menten model. Additionally, data were globally fit to either Lineweaver-Burk equations for uncompetitive or non-competitive inhibition, yielding Ki for each compound (Equations (1) and (2), respectively).

XccFPR [7] = target: T1, XccFPR; settings: ferricyanide as electron acceptor; cited from earlier work
[8] = compound 2 mM, NADP+ 50 µM, DMSO 2 %
[9] = 25 °C, 2% DMSO, pH 8.0, 20 nM XccFPR, 95 µM DCPIP, 50 μM NADPH
[10] = compound 1 mM, NADP+ 50 µM, DMSO 2 %

T2 sequence (P21890 138-440 limits assumed): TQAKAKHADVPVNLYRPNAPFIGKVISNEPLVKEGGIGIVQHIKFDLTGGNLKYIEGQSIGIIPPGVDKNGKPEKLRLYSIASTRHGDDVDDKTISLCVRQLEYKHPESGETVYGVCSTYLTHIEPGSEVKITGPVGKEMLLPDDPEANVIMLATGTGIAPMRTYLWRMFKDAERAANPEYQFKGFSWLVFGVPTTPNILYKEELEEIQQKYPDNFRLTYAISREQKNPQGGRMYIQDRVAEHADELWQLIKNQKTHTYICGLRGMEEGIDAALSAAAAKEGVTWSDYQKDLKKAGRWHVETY

CSc1sc(NC(=O)Nc2ccc(F)c(Cl)c2)c(-c2ccc(Cl)cc2)c1C#N [C12, 1-(3-chloro-4-fluorophenyl)-3-[3-(4-chlorophenyl)-4-cyano-5-(methylsulfanyl)thiophen-2-yl]urea]
Xcc growth inhibition on solid SB medium (Xcc [1]; 2 µL of 10, 100 and 1000 µM solutions): inhibited Xcc growth at all concentrations assayed
lowest concentration assayed that inhibited Xcc growth (Xcc [1]; solid SB medium): 10 µM
growth inhibition in liquid medium (bacterial viability) (Xcc [2]): decrease of bacterial viability
IC50 (XccFPR [3]): 7.7 ± 1 µM
Ki (XccFPR [4]): 4.2 ± 0.9 µM
Inhibition Mechanism (XccFPR [4]): Non-competitive

CSc1sc(NC(=O)Nc2cccc(C(F)(F)F)c2)cc1C#N [D2]
TmFAD (XccFPR [5]; compound 2 mM, DMSO 2 %): 41.7 ± 0.1 °C
ΔTmFAD (XccFPR [5]; compound 2 mM, DMSO 2 %): 0.7±0.2 °C
TmFAD (XccFPR [5]; [8]): 46.0 ± 0.1 °C
ΔTmFAD (XccFPR [5]; [8]): 5.0±0.2 °C
ICmax (concentration causing maximal inhibition) (XccFPR [3]; 25 °C, 50 mM Tris/HCl, 2% DMSO, pH 8.0, 20 nM XccFPR, 95 µM DCPIP, 50 μM NADPH): 175 ± 1 µM
IC50 (XccFPR [3]; 25 °C, 50 mM Tris/HCl, 2% DMSO, pH 8.0, 20 nM XccFPR, 95 µM DCPIP, 50 μM NADPH, compound 0–800 μM): 26 ± 1 µM
inhibitory effect on XccFPR (in words) (XccFPR [3]): moderate IC50 but high concentrations were required to abolish XccFPR activity
% Inhibition at ICmax (XccFPR [3]; [9]): 100 ± 1%
Ki (XccFPR [4]): 28 ± 2 µM
Inhibition Mechanism (XccFPR [4]): uncompetitive inhibitor
IC50 (AnFNR): 27 ± 1 µM
ICmax (concentration causing maximal inhibition) (AnFNR): 100 ± 2 µM
% Inhibition at ICmax (AnFNR): 99 ± 11%

O=C(Nc1ccc(Cl)cc1)Nc1nnc(SCc2ccc(Cl)cc2)s1 [D5, 1-[5-(4-Chloro-benzylsulfanyl)-[1,3,4]thiadiazol-2-yl]-3-(4-chloro-phenyl)-urea]
TmFAD (XccFPR [5]; compound 1 mM, DMSO 2 %): 41.4 ± 0.1 °C
ΔTmFAD (XccFPR [5]; compound 1 mM, DMSO 2 %): 0.4±0.2 °C
TmFAD (XccFPR [5]; [10]): 46.9 ± 0.1 °C
ΔTmFAD (XccFPR [5]; [10]): 5.9±0.2 °C
IC50 (XccFPR [3]): 6.6 ± 1.1 µM
% Inhibition at ICmax (XccFPR [3]; [9]): 100 ± 2%
Ki (XccFPR [4]): 4.3 ± 1.1 µM
Inhibition Mechanism (XccFPR [4]): Non-competitive
IC50 (AnFNR): 102 ± 1 µM
ICmax (concentration causing maximal inhibition) (AnFNR): >300 µM
% Inhibition at ICmax (AnFNR): ~47%

Cc1c(S(=O)(=O)c2ccc(Cl)cc2)csc1C(=O)Nc1ccc(F)cc1F [D8, 4-(4-chlorobenzenesulfonyl)-N-(2,4-difluorophenyl)-3-methylthiophene-2-carboxamide]
IC50 (XccFPR [3]): 38 ± 1 µM
inhibitory effect on XccFPR (in words) (XccFPR [3]): moderate IC50 but high concentrations were required to abolish XccFPR activity
% Inhibition at ICmax (XccFPR [3]; [9]): 100 ± 1%
Ki (XccFPR [4]): 62 ± 19 µM
Inhibition Mechanism (XccFPR [4]): Non-competitive
IC50 (AnFNR): 122 ± 1 µM
ICmax (concentration causing maximal inhibition) (AnFNR): >350 µM
% Inhibition at ICmax (AnFNR): ~73%

C[S+](C)[O-] [DMSO]
ΔTmFAD (XccFPR [5]; DMSO 2 %): -0.4±0.2 °C
TmFAD (XccFPR [5]; DMSO 2 %, 50 mM Tris/HCl): 40.6 ± 0.1 °C
TmFAD (XccFPR [5]; DMSO 5 %): 39.0 ± 0.1 °C
TmFAD (XccFPR [5]; DMSO 10 %): 37.7 ± 0.1 °C
effect of solvent on XccFPR enzyme activity (XccFPR [6]; DMSO below 3%): did not modify the kinetic parameters
effect of solvent on XccFPR enzyme activity (XccFPR [6]; DMSO percentages larger than 3%): decreased the maximal rate constant

NC(=O)C1=CN([C@@H]2O[C@H](COP(=O)(O)OP(=O)(O)OC[C@H]3O[C@@H](n4cnc5c(N)ncnc54)[C@H](OP(=O)(O)O)[C@@H]3O)[C@@H](O)[C@H]2O)C=CC1 [NADPH, reference compound]
kcat (XccFPR [6]; NADPH-dependent DCPIP diaphorase activity, 25 °C, pH 8.0): 22.6 ± 2.3 s⁻¹
Km (XccFPR [6]; read-out: Km^NADPH, DCPIP as electron acceptor, 25 °C, pH 8.0): 6.6 ± 1.1 µM
kcat (XccFPR [7]): 122 ± 18 s⁻¹

NC(=O)c1ccc[n+]([C@@H]2O[C@H](COP(=O)([O-])OP(=O)(O)OC[C@H]3O[C@@H](n4cnc5c(N)ncnc54)[C@H](OP(=O)(O)O)[C@@H]3O)[C@@H](O)[C@H]2O)c1 [NADP^+]
TmFAD (XccFPR [5]; NADP+ 50 µM, DMSO 2 %): 46.7 ± 0.1 °C
ΔTmFAD (XccFPR [5]; NADP+ 50 µM, DMSO 2 %): 5.7±0.2 °C
TmFAD (XccFPR [5]; NADP+ 50 µM, no DMSO): 47.2 ± 0.1 °C
ΔTmFAD (XccFPR [5]; NADP+ 50 µM, no DMSO): 6.2±0.2 °C
